In ChEMBL document CHEMBL1147618, “Crucial amides for dimerization inhibitors of HIV-1 protease” (Bioorg Med Chem Lett, 2004):
pIC50: −log10 of the molar value.

What was measured:
[1] = biological target: Human immunodeficiency virus type 1 protease (Human immunodeficiency virus 1, UniProt Q72874); assay: Inhibitory concentration against Protease
[2] = biological target: Human immunodeficiency virus type 1 protease (Human immunodeficiency virus 1) (UniProt Q72874); assay: Relative loss of potency of compound in inhibiting Protease was determined

| SMILES | pIC50 [1] | Relative loss of potency [2] |
| --- | --- | --- |
| CC(C)C[C@H](NC(=O)[C@@H](NC(=O)CCCCCCCCCCCCCCC(=O)N[C@@H](C(N)=O)C(=O)N(C)[C@H](Cc1ccccc1)C(=O)O)[C@H](C)O)C(=O)N[C@@H](Cc1ccccc1)C(N)=O | 5.02 | 1.6 |
| CC(C)C[C@H](NC(=O)[C@@H](NC(=O)CCCCCCCCCCCCCCC(=O)N[C@@H](C(N)=O)C(=O)N[C@H](Cc1ccccc1)C(=O)O)[C@H](C)O)C(=O)N[C@@H](Cc1ccccc1)C(N)=O | 5.23 | 1 |
| CC(C)C[C@@H](C(=O)N[C@@H](Cc1ccccc1)C(N)=O)N(C)C(=O)[C@@H](NC(=O)CCCCCCCCCCCCCCC(=O)N[C@@H](C(N)=O)C(=O)N[C@H](Cc1ccccc1)C(=O)O)[C@H](C)O | 5.10 | 1.4 |
| CC(C)C[C@H](NC(=O)[C@@H](NC(=O)CCCCCCCCCCCCCCC(=O)N(C)[C@@H](C(N)=O)C(=O)N[C@H](Cc1ccccc1)C(=O)O)[C@H](C)O)C(=O)N[C@@H](Cc1ccccc1)C(N)=O | 5.35 |  |
| CC(C)C[C@H](NC(=O)[C@@H](NC(=O)CCCCCCCCCCCCCCC(=O)N[C@@H](C(N)=O)C(=O)N(C)[C@H](Cc1ccccc1)C(=O)O)[C@H](C)O)C(=O)NCCc1ccccc1 | 5.24 |  |
| CC(C)C[C@H](NC(=O)[C@@H](NC(=O)CCCCCCCCCCCCCCC(=O)N[C@@H](C(N)=O)C(=O)N[C@H](Cc1ccccc1)C(=O)O)[C@H](C)O)C(=O)N(C)[C@@H](Cc1ccccc1)C(N)=O | 4.89 | 2.2 |
| CC(C)C[C@H](NC(=O)[C@H]([C@H](C)O)N(C)C(=O)CCCCCCCCCCCCCCC(=O)N[C@@H](C(N)=O)C(=O)N[C@H](Cc1ccccc1)C(=O)O)C(=O)N[C@@H](Cc1ccccc1)C(N)=O | 5.08 | 1.4 |
